Experimental findings from patent publication US10294217B2, “Fluoroindole derivatives as muscarinic M1 receptor positive allosteric modulators” (Suven Life Sciences Limited, priority 2015, dated 2019) are described below.

One may read the AUC(0-t) as the area under the concentration-time curve up to a stated or last time point. In general, half-life refers to how long it takes for the measured level to halve. Read a low half-life as rapid decline. As a reminder, the clearance is a measure of how efficiently the substance is removed, as volume per time. Low values mean a low capacity for elimination, high ones a high capacity for elimination. What is called bioavailability is the share of a dose that reaches the circulation, judged against a reference dose that is usually intravenous. Broadly, the Cmax is the maximum level reached in the sampled fluid or tissue.

Data set [1] can be described thus: Rodent brain penetration study. It is filed as in vivo, Male Wistar rats. The following applies: male, Wistar, rat, oral; 3 mg/kg, p.o.; brain-plasma ratio; read-out: Single dose Rat Brain Penetration (Cb/Cp). On the procedure: WO2015044072A1 patent application discloses indole derivatives as M1 PAM compounds. […] This makes these compounds less ideal for the treatment of CNS disorders.
Rodent Brain Penetration Study
Male Wistar rats (260±40 grams) were used as experimental animals. Three animals were housed in each cage. Animals were given water and food ad libitum throughout the experiment and maintained on a 12 hours light/dark cycle.
Brain penetration was determined in discrete manner in rats. One day prior to dosing day, male Wistar rats were acclimatized and randomly grouped according to their weight. At each time point (0.5, 1 and 2 hours) n=3 animals were used.
The test compounds were suitably preformulated and administered orally at (free base equivalent) 3 mg/kg. Blood samples were removed via cardiac puncture by using isoflurane anesthesia. The animals were sacrificed to collect brain tissue. Plasma was separated and brain samples were homogenized and stored frozen at ˜20° C. until analysis. The concentrations of the test compounds in plasma and brain were determined using LC-MS/MS method.
The test compounds were quantified in plasma and brain homogenate by qualified LC-MS/MS method using suitable extraction technique. The test compounds were quantified in the calibration range of 1-500 ng/mL in plasma and brain homogenate. Study samples were analyzed using calibration samples in the batch and quality control samples spread across the batch.

Data set [2] can be described thus: Protein binding assay (HT dialysis), rat matrices. The following applies: Mean ± SEM. It is filed as in vitro ADME. Here is the method: (§1) Unbound fractions of new chemical entities in plasma, brain homogenate and liver microsomes were determined using high-throughput dialysis (HT dialysis). Briefly, dialysis membranes were soaked in deionized water for 20 minutes and then in deionized water with 30% ethanol for 15 minutes and finally in phosphate buffer until use. Membranes were rinsed in phosphate buffer before assembling. The membranes were layered between teflon bars of dialysis assembly. Stock solutions of test compounds were prepared at 10 mM in DMSO, diluted to 1 mM in acetonitrile and further diluted to 100 μM in mixture of water and acetonitrile (1:1 v/v). Human plasma (pool of 3) was prepared from human blood (3 donors) by centrifuging at 4000 rpm for 10 min at 4° C. Rat and dog blood were obtained on the day of the study and centrifuged to obtain plasma. Rat brains were isolated, cleaned and homogenized with 2 volumes of buffer (3 fold dilution). Liver microsomes were prepared at 0.5 mg/mL in phosphate buffer (100 mM, pH 7.4). The dialysate chambers were loaded with 150 μL of 100 mM phosphate buffer (pH 7.4) in triplicates. The matrix chambers were loaded with 150 μL of the plasma or brain homogenate or microsomal suspension spiked with test compounds at a final concentration of 1 μM. 50 μL of the sample was removed from both the chambers at 0 h. The plate was sealed and incubated at 37° C. for 6 h at 100 rpm. After 6 h, 50 μL of the sample was removed from both the chambers. Equal volumes of buffer or human plasma/microsomal suspension were added to the plasma/microsomal and buffer samples respectively to create identical sample matrices for analysis. The samples were precipitated with 150 μL of acetonitrile containing fluoxetine as an internal standard. All the samples were centrifuged at 10000 rpm for 10 minutes at 4° C.

Data set [3] can be described thus: Rodent pharmacokinetic study. It is filed as in vivo, Male Wistar rats. The following applies: male, Wistar. On the procedure:
Rodent Pharmacokinetic Study
Male Wistar rats (260±50 grams) were used as experimental animals. Animals were housed individually in polypropylene cage. Two days prior to study, male Wistar rats were anesthetized with isoflurane for surgical placement of jugular vein catheter. Rats were randomly divided for oral (3 mg/kg) and intravenous (i.v.) (1 mg/kg) dosing (n=3/group) and fasted overnight before oral dosing (p.o.). However, rats allocated to intravenous dosing food and water was provided ad libitum.
At pre-determined point, blood was collected through jugular vein and replenished with an equivalent volume of normal saline. Collected blood was transferred into a labeled eppendorf tube containing 10 μL of heparin as an anticoagulant. Typically blood samples were collected at following time points: 0.08, 0.25, 0.5, 1, 2, 4, 6, 8, and 24 hours post dose. Blood was centrifuged at 4000 rpm for 10 minutes. Plasma was separated and stored frozen at −80° C. until analysis. The concentrations of the test compounds were quantified in plasma by qualified LC-MS/MS method using suitable extraction technique. The test compounds were quantified in the calibration range around 1-1000 ng/mL in plasma. Study samples were analyzed using calibration samples in the batch and quality control samples spread across the batch.
Pharmacokinetic parameters Cmax, AUCt, T1/2, Clearance, and Bioavailability (% F) were calculated by non-compartmental model using standard non-compartmental model by using Phoenix WinNonlin 6.0.2 or 6.0.3 version Software package and the results are tabulated in table 3.

A short description of data set [4]: Protein binding assay (HT dialysis), human matrices. It is filed as in vitro ADME. The following applies: Mean ± SEM. On the procedure:
as §1

For the next data set, the system named is Male Wistar rats. The experiment in a line: Object recognition task model. It is filed as in vivo. The following applies: 0.3 mg/kg, p.o. Here is the method:
Object Recognition Task Model
The cognition enhancing properties of compounds of this invention were estimated by using this model.
Male Wistar rats (8-10 weeks old) were used as experimental animals. Four animals were housed in each cage. Animals were kept on 20% food deprivation from a day prior to experimentation. Water was provided ad libitum throughout the experiment. Animals were maintained on a 12 hours light/dark cycle in temperature and humidity controlled room. The experiment was carried out in an open field made up of acrylic. Rats were habituated to individual arenas (open field) for 1 hour in the absence of any objects on day 1.
One group of 12 rats received vehicle and another set of animals received compound of the formula (I), before the familiar (T1) and choice (T2) trials. During the familiarization phase, (T1), the rats were placed individually in the arena for 3 minutes, in which two identical objects (a1 and a2) were positioned 10 cm from the wall. 24 hours after T1, trial for long-term memory test was performed. The same rats were placed in the same arena as they were placed in T1 trial. During the choice phase (T2) rats were allowed to explore the arena for 3 minutes in presence of a copy of familiar object (a3) and one novel object (b). During the T1 and T2 trial, explorations of each object (defined as sniffing, licking, chewing or having moving vibrissae whilst directing the nose towards the object at a distance of less than 1 cm) were recorded using stopwatch. • T1 is the total time spent exploring the familiar objects (a1+a2). • T2 is the total time spent exploring the familiar object and novel object (a3+b). • Discriminative index=Time spent with novel object/(time spent with novel and familiar object).
The object recognition test was performed as described by Behavioural Brain Research, 1988, 31, 47-59 and the results are provided in table 5.

[5] abbreviates: mean ± S.E.M, choice trial 24 hours after T1.

Consider `O=C(N[C@H]1CCCC[C@@H]1O)c1cn(Cc2ccnc(F)c2)c2c(F)ccc(F)c12` [Example 8, N-[(1S,2S)-2-Hydroxycyclohexyl]-1-(2-fluoropyridin-4-ylmethyl)-4,7-difluoro-1H-indole-3-carboxamide], for which the Kp in data set [1] came out at 1.1 ± 0.1. In addition, the fraction unbound at 6 h, 1 μM in data set [2] (pH 7.4, Rat brain homogenate, 37° C., n = 3, read-out: Fu Brain) amounted to 0.0348 ± 0.0001; in data set [2] (pH 7.4, Rat liver microsomes 0.5 mg/mL, n = 3, read-out: Fu Microsomes), 0.606 ± 0.008; in data set [2] (pH 7.4, Rat plasma, 37° C., n = 3, read-out: Fu Plasma), 0.089 ± 0.01; in data set [4] (pH 7.4, Human liver microsomes 0.5 mg/mL, n = 3, read-out: Fu Microsomes) it was 0.626 ± 0.037; in data set [4] (pH 7.4, Human plasma, 37° C., n = 3, read-out: Fu Plasma) it was 0.079 ± 0.006. Further, the AUC(0-t) in data set [3] (iv, 1 mg/kg, rat plasma) was 1830 ± 562 ng·h/mL; in data set [3] (oral, 3 mg/kg, rat plasma) it was 2500 ± 842 ng·h/mL. In addition, the half-life in data set [3] (iv, 1 mg/kg, rat plasma) is 1.8 ± 0.3 h; in data set [3] (oral, 3 mg/kg, rat plasma), 2.3 ± 1.8 h. In data set [3] (plasma, iv, 1 mg/kg, rat), this compound returned a clearance of 9 ± 3 mL/min/kg. Also, the bioavailability in data set [3] (plasma, oral 3 mg/kg vs i.v. 1 mg/kg, rat, read-out: % F (Bioavailability)) came out at 45 ± 15%. Further, in data set [3] (oral, 3 mg/kg, rat plasma), the highest level (Cmax) was 578 ± 170 ng/mL. Further, the Inference result with Male Wistar rats was “Active”. The “Exploration time Familiar object” value in the data set on Male Wistar rats (setting [5]) was 7.59 ± 1.02 s. The “Exploration time Novel object” value in the data set with Male Wistar rats (setting [5]) came to 14.36 ± 1.56 s.
